Test results as given in patent US20080299542A1, “IDENTIFICATION OF OXIDATIVELY MODIFIED PEPTIDE SEQUENCES IN THE PROTEOME (LOSCALZO)” (priority 2007, published 2008).
“Also recorded” adds a separate entry of the source.

Legend:
[1] = test system: protein disulfides in BAECs; assay: in situ fluorescence imaging of cellular protein disulfides (BAECs); format: cell-based, Bovine; conditions: for protein disulfide formation: BAECs, mitochondrial inhibitors, FIG. 1b
Protocol: (§1) Detection of cellular disulfide-containing proteins: We developed a method for imaging disulfide-containing proteins in situ. Methanol-fixed cells were treated with 200 mM iodoacetamide in 100 mM Tris, pH 8.3, 5 mM EDTA at 37° C. for 1 hour to block thiols. The cells were then washed six times with Tris-buffered saline, pH 8.0, 5 mM EDTA, after which they were incubated with 5 mM EDTA, 1 mM tris(2-carboxyethyl) phosphine, pH 8.3, at room temperature to reduce disulfides and with 1 mM 5-iodoacetamidofluorescein (5-IAF) in 100 mM Tris to label the resulting thiols for 1 hour. Excess dye was removed by washing the cells repeatedly with TBS. Stained cells fixed to slides were then treated with Prolonged Antifade Mounting Medium, and cell nuclei were counterstained with DAPI. Fluorescent images were taken with a Nikon fluorescence TE 2000 microscope. Fluorescence intensity was quantified by subtracting background fluorescence, then integrating the image with the NIH IMAGEJ program and normalizing by cell number as determined by DAPI fluorescence. Four fields magnified×20 were analyzed per experiment, with 100-200 cells counted per sample.

vWF = assay: multimeric vWF immunoblot / immunofluorescence in HPAECs; format: cell-based, human; conditions: FIG. 1i
Protocol: (§2) Western blotting and indirect immunofluorescence: Cells were lysed in cell lysis buffer (Cell Signaling, Danvers, Mass.). Lysate protein concentration was measured by the Biorad DC protein assay. Equal amounts of proteins were separated by MOPS-SDS-PAGE, then transferred to poly(vinylidene difluoride) membranes (Invitrogen, Carlsbad, Calif.). Membranes were then blocked and the signal detected with a BM Chemiluminescence Blotting kit (Roche Diagnostics, Basel, Switzerland), BM POD precipitating blotting substrate (Roche Diagnostics, Basel, Switzerland), or Supersignal West Femto blotting kit (Pierce, Rockford, Ill.) according to the manufacturer's instructions. For protein inter-subunit disulfide bond detection, cells were lysed in cell lysis buffer containing 200 mM N-ethyl-maleimide and incubated at 37° C. for 1 hr. LDS sample buffer with or without DTT was added to cell lysates, and proteins were separated by MOPS-SDS-PAGE. For indirect immunofluorescence studies, formaldehyde-fixed cells were permeablized with 0.3% Triton for 10 min, blocked with 1% BSA for 30 min, then detected with antibodies. Primary antibodies used in this study include monoclonal or polyclonal antibodies against CD98, PECAM, endoglin, vWF, PDI, pEGFR, EGFR, FGFR, and CD71 from Santa Cruz; against actin, from Sigma, St. Louis, Mo.; against pFGFR, pIGF1R, and IGF1R from Cell Signaling (Danvers, Mass.); against thioredoxin, MnSOD, catalase, and GAPDH from Abcam, Cambridge, Mass.; and against LOX-1 from Serotec, Raleigh, N.C. All secondary fluorescent-labeled or horseradish peroxidase-conjugated antibodies were obtained from Jackson Immunoresearch, West Grove, Pa.

IGF-1R = assay: IGF-1-induced IGF-1R phosphorylation; format: cell-based; conditions: in the presence of 0.3 mM DTT; Chang liver cells; FIG. 8c
Protocol: (§3) Surface receptor functional assessment: After treatment, cells was incubated with 500 ng/ml Alexa 488-labeled EGF in DMEM containing 1% BSA, 50 μg/ml Alexa-488-labeled transferrin for 10 min, or 10 μg/ml Alexa 488-labeled AcLDL for 30 min in growth medium, and then washed with cold HBSS four times before fixation with formaldehyde at room temperature. Cells were also trypsinzed and ligand uptake quantified by flow cytometry (FACS Calibur). For protein phosphorylation studies, cell lysates were also collected 5 min after stimulation with ligands. Western blotting and indirect immunofluorescence: Cells were lysed in cell lysis buffer (Cell Signaling, Danvers, Mass.). Lysate protein concentration was measured by the Biorad DC protein assay. Equal amounts of proteins were separated by MOPS-SDS-PAGE, then transferred to poly(vinylidene difluoride) membranes (Invitrogen, Carlsbad, Calif.). Membranes were then blocked and the signal detected with a BM Chemiluminescence Blotting kit (Roche Diagnostics, Basel, Switzerland), BM POD precipitating blotting substrate (Roche Diagnostics, Basel, Switzerland), or Supersignal West Femto blotting kit (Pierce, Rockford, Ill.) according to the manufacturer's instructions. […] For indirect immunofluorescence studies, formaldehyde-fixed cells were permeablized with 0.3% Triton for 10 min, blocked with 1% BSA for 30 min, then detected with antibodies. […]

CD71 = assay: transferrin uptake (mediated by CD71) by HPAECs; format: cell-based, human; conditions: 0.5 mM DTT, 30 min, flow cytometry
Protocol: (§4) Surface receptor functional assessment: After treatment, cells was incubated with 500 ng/ml Alexa 488-labeled EGF in DMEM containing 1% BSA, 50 μg/ml Alexa-488-labeled transferrin for 10 min, or 10 μg/ml Alexa 488-labeled AcLDL for 30 min in growth medium, and then washed with cold HBSS four times before fixation with formaldehyde at room temperature. Cells were also trypsinzed and ligand uptake quantified by flow cytometry (FACS Calibur). For protein phosphorylation studies, cell lysates were also collected 5 min after stimulation with ligands.

LOX-1 = assay: acetylated LDL (AcLDL) uptake by HPAECs; format: cell-based, human; conditions: for uptake of acetylated LDL (AcLDL) by HPAECs: mitochondrial inhibitors for 8 hr, FIG. 5
Protocol: as §4

EGFR = assay: EGF uptake and EGF-induced EGFR phosphorylation; format: cell-based; conditions: Chang liver cells
Protocol: as §3

FGFR = assay: bFGF-induced FGFR phosphorylation; format: cell-based; conditions: in the presence of 0.3 mM DTT; Chang liver cells; FIG. 8d
Protocol: as §3

GRP94 = assay: ER stress marker induction, GRP94; format: cell-based; conditions: compared to tunicamycin and thapsigargin treatments
Protocol: as §2, with “Primary antibodies used in this study include monoclonal or polyclonal antibodies against CD98, PECAM, endoglin, vWF, PDI, pEGFR, EGFR, FGFR, and CD71 from Santa Cruz; against actin, from Sigma, St. Louis, Mo.; against pFGFR, pIGF1R, and IGF1R from Cell Signaling (Danvers, Mass.); against thioredoxin, MnSOD, catalase, and GAPDH from Abcam, Cambridge, Mass.; and against LOX-1 from Serotec, Raleigh, N.C. All secondary fluorescent-labeled or horseradish peroxidase-conjugated antibodies were obtained from Jackson Immunoresearch, West Grove, Pa.” left out

[2] = test system: protein disulfides in Chang liver cells; assay: in situ fluorescence imaging of cellular protein disulfides (Chang liver cells); format: cell-based; conditions: CCCP for 4 hr, FIG. 1a
Protocol: as §1

GRP78 = assay: ER stress marker induction, GRP78; format: cell-based; conditions: compared to tunicamycin and thapsigargin treatments
Protocol: as §2, with “Primary antibodies used in this study include monoclonal or polyclonal antibodies against CD98, PECAM, endoglin, vWF, PDI, pEGFR, EGFR, FGFR, and CD71 from Santa Cruz; against actin, from Sigma, St. Louis, Mo.; against pFGFR, pIGF1R, and IGF1R from Cell Signaling (Danvers, Mass.); against thioredoxin, MnSOD, catalase, and GAPDH from Abcam, Cambridge, Mass.; and against LOX-1 from Serotec, Raleigh, N.C. All secondary fluorescent-labeled or horseradish peroxidase-conjugated antibodies were obtained from Jackson Immunoresearch, West Grove, Pa.” left out

Endoglin = assay: endoglin disulfide-dependent detection and localization in HPAECs; format: cell-based, human; conditions: non-reducing immunoblot; FIG. 1j
Protocol: as §2, with “Primary antibodies used in this study include monoclonal or polyclonal antibodies against CD98, PECAM, endoglin, vWF, PDI, pEGFR, EGFR, FGFR, and CD71 from Santa Cruz; against actin, from Sigma, St. Louis, Mo.; against pFGFR, pIGF1R, and IGF1R from Cell Signaling (Danvers, Mass.); against thioredoxin, MnSOD, catalase, and GAPDH from Abcam, Cambridge, Mass.; and against LOX-1 from Serotec, Raleigh, N.C. All secondary fluorescent-labeled or horseradish peroxidase-conjugated antibodies were obtained from Jackson Immunoresearch, West Grove, Pa.” left out

CD98 = CD98 heterodimer blot in Chang liver cells; format: cell-based; conditions: mitochondrial inhibitor treated
Protocol: as §2, with “Primary antibodies used in this study include monoclonal or polyclonal antibodies against CD98, PECAM, endoglin, vWF, PDI, pEGFR, EGFR, FGFR, and CD71 from Santa Cruz; against actin, from Sigma, St. Louis, Mo.; against pFGFR, pIGF1R, and IGF1R from Cell Signaling (Danvers, Mass.); against thioredoxin, MnSOD, catalase, and GAPDH from Abcam, Cambridge, Mass.; and against LOX-1 from Serotec, Raleigh, N.C. All secondary fluorescent-labeled or horseradish peroxidase-conjugated antibodies were obtained from Jackson Immunoresearch, West Grove, Pa.” left out

HPAECs = assay: mitochondrial membrane potential by JC-1 fluorescence; format: cell-based, human; conditions: after CCCP treatment, FIG. 5b
Protocol: Mitochondrial membrane potential measurement: Cells were incubated with medium containing 1 ug/ml JC-1 for […], washed with HBSS, and then observed by fluorescence microscopy immediately. Alternatively, fluorescence was measured with a GEMINI XPS microplate reader, with an excitation wavelength of 488 nm and an emission wavelength of 536 nm, as well as an excitation wavelength of 528 nm and an emission wavelength 590 nm. Mitochondrial membrane potential was expressed as the ratio of emission at 590 nm to that at 536 nm.

CCCCCC[C@H]1C(=O)O[C@H](C)[C@H](NC(=O)c2cccc(NC=O)c2O)C(=O)O[C@@H](C)[C@@H]1OC(=O)CC(C)C [ATM, antimycin A]
protein disulfide formation [1]: least effective

CCCCS(=N)(=O)CCC(N)C(=O)O (stereo not shown) [BSO, buthionine sulfoximine]
disulfide-linked multimeric vWF (vWF): increased

O[C@H](CS)[C@H](O)CS (racemic) [DTT, dithiothreitol]
phosphorylation of IGF-1Rβ (IGF-1R): completely inhibited | uptake of transferrin (CD71): did not change | uptake of AcLDL by HPAECs (LOX-1; 0.5 mM DTT, 30 min, flow cytometry, FIG. 8a): decreased | uptake of EGF (EGFR; 0.5 mM DTT, 30 min, flow cytometry): did not change | EGFR activation by EGF (EGFR; in the presence of 0.5 mM DTT): fully activated | phosphorylation of FGFR (FGFR): completely inhibited

O=c1c2ccccc2[se]n1-c1ccccc1 [ebselen]
inhibition of disulfide formation ([1]; FIG. 1c, p<0.01, cell type not stated): 55%

N#CC(C#N)=NNc1cccc(Cl)c1 [CCCP, carbonylcyanide m-chlorophenylhydrazone]
upregulation of GRP94 (GRP94): did not induce significant upregulation | overall protein disulfide signal [2]: decreased | upregulation of GRP78 (GRP78): did not induce significant upregulation | protein disulfide formation [1]: decreased; also recorded: most effective | effect on protein disulfide formation in MitoCAT overexpressing cells ([1]; CCCP for 8 hrs, FIG. 4): no longer had any effect | endoglin detected by P4A4 antibody (Endoglin): less endoglin was detected | uptake of acetylated LDL (AcLDL) by HPAECs (LOX-1): decreased | disulfide-linked multimeric vWF (vWF): dissociation of disulfide-linked multimeric vWF | heterodimer CD98 (CD98): remained intact | mitochondrial membrane potential (MMP) (HPAECs): immediate loss

O=C(CC(=O)C(F)(F)F)c1cccs1 [TTFA, thienoyltrifluoroacetone]
protein disulfide formation [1]: decreased | endoglin detected by P4A4 antibody (Endoglin): less endoglin was detected | uptake of acetylated LDL (AcLDL) by HPAECs (LOX-1): decreased

CO/C(=C/C(N)=O)[C@H](C)[C@H](/C=C/c1csc(-c2csc([C@@H](C)/C=C/C=C/C(C)C)n2)n1)OC [myxothiazol]
protein disulfide formation [1]: decreased

C[C@]12CC[C@H](O)CC1=CC[C@@H]1[C@@H]2CC[C@]2(C)C(=O)CC[C@@H]12 [DHEA, dehydroepiandrosterone]
disulfide-linked multimeric vWF (vWF): increased

C=C(C)[C@H]1Cc2c(ccc3c2O[C@@H]2COc4cc(OC)c(OC)cc4[C@@H]2C3=O)O1 [rotenone]
protein disulfide formation [1]: decreased
